Data: patent publication US20140294729A1, “METHODS FOR IDENTIFICATION AND USE OF AGENTS TARGETING CANCER STEM CELLS” (Whitehead Institute for Biomedical Research, priority 2008, published 2014)
Entries after “also recorded” stand apart in the source; their conditions may differ.

What was measured:
HMLER cells [1] = experiment: Mammosphere formation assay of treated HMLER cells; type: cell-based, human
Description: (§1) FIGS. 6A and 6B depict effects of salinomycin on the CSC population in HMLER cell line. (FIG. 6A) HMLER cells were treated with vehicle control (dmso), salinomycin or paclitaxel at the indicated concentrations for 15 days. FACS analysis were performed at the end of treatment to gauge the CD44+/CD24− CSC population (right panels). Note that salinomycin decreases the CD44+/CD24− population from a basal of 4.9% to 0.2%. Treated cultures were also subjected to the mammosphere formation assay (left panels). Number of mammopsheres formed per 1000 cells from each culture are indicated below the representative photographs of assay wells. (FIG. 6B) Growth rates of HMLER cultures after treatment with vehicle control (dmso), salinomycin or paclitaxel at the indicated concentrations in (A) for 15 days.
We examined the ability of breast cancer cells to form mammospheres following treatment with salinomycin.
(§2) Mammosphere culture was performed as described (Dontu et al., 2003), except that the culture medium contained 0.9% methyl cellulose (Stem cell technologies) to prevent cell aggregation. […] were plated per well in 96-well plates. The mammospheres were cultured for 7-10 days and then photographed and counted.

[2] = test system: SUM159 breast cancer cells; experiment: In vivo tumor formation by SUM159 breast cancer cells in treated mice; details: FIG. 15A
Description: FIG. 15A depicts in vivo tumor formation by SUM159 breast cancer cells in mice that were treated with salinomycin, paclitaxel or vehicle. […] FIG. 15B depicts the mammosphere-forming potential of cancer cells obtained from SUM159 tumors from salinomycin, paclitaxel or DMSO-treated mice.
(§3) The mammosphere forming potential of parental HMLER cells treated with either DMSO, paclitaxel (taxol) or salinomycin was also examined at various doses. Salinomycin, but not paclitaxel inhibited mammosphere formation in MCF7Ras or 4T1 cells. (FIG. 14.) The effects of salinomycin, paclitaxel or vehicle control treatments on in vivo tumor formation by SUM159 breast cancer cells injected in mice was determined. […] (FIG. 15A.) The mammosphere-forming potential of cancer cells obtained from SUM159 tumors from salinomycin, paclitaxel or DMSO-treated mice was also determined (FIG. 15B.)

HMLER cells [3] = experiment: FACS of the CD44+/CD24- CSC population in treated HMLER cells; type: cell-based, human
Description: as §1
We then turned to the critical question of whether the compounds had the general ability to inhibit CSCs in breast cancer cell lines. […] We next compared the effects of salinomycin, control vehicle DMSO and paclitaxel on HMLER cells. […] The CD44+/CD24− fraction was thus 360-fold lower following treatment with salinomycin than with paclitaxel (FIG. 6A). Proliferation of the bulk population was not inhibited following treatment with salinomycin relative to either vehicle- or paclitaxel-treatment (FIG. 6B).
(§4) The anti-CD44 (clone G44-26) antibody conjugated to APC and the anti-CD24 antibody (clone ML5) conjugated to PE used for FACS analysis were obtained from BD Bioscience and used according to the manufacturer's instructions. Propidium Iodide (5 ug/ml) was included in the staining protocol to distinguish live cells.

MCF7Ras cells = experiment: Mammosphere-forming potential of treated MCF7Ras cells; type: cell-based; details: FIG. 14
Description: (§5) FIG. 14A depicts the mammosphere forming potential of parental HMLER cells treated with either DMSO, paclitaxel (taxol) or salinomycin at the specified doses. FIG. 14B depicts MCF7Ras or 4T1 cells that were treated with DMSO, paclitaxel or salinomycin. Mammosphere-forming potential is shown below.
as §2, §3

4T1 cells = experiment: Mammosphere-forming potential of treated 4T1 cells; type: cell-based; details: FIG. 14
Description: as §5, §2, §3

[4] = test system: CSCs in breast cancer cell populations; experiment: In vivo tumor-seeding ability after in vitro drug treatment (serial dilution, subcutaneous injection); design: species or system NOD/SCID mice
Description: Finally, we also directly assessed the functional presence of CSCs by assaying in vivo tumor-seeding ability following drug treatment. Cells were treated in vitro for 5 days and then injected subcutaneously into NOD/SCID mice. […] The proportion of functional CSCs was thus reduced by 1000-fold following salinomycin treatment compared to paclitaxel treatment.
(§6) To directly evaluate the effect of salinomycin on cancer stem cell populations, we functionally assayed for cancer stem cell activity in salinomycin, taxol, or DMSO-treated cultures.
We have established several downstream assays for the follow-up evaluation of screen hits with respect to their effects on cancer stem cells: (1) Treat cells in culture for a period of time with screen hits (e.g., compounds, compositions, antibodies, shRNAs, etc.), including the necessary controls, and then allow the cells to recover for a period (e.g., up to 12 hours, up to 24 hours, up to 48 hours, up to 72 hours etc.), and then perform FACS with markers that identify populations enriched for cancer stem cells (for example, but not limited to, CD44+/CD24− in the case of breast cancer). (2) Treat cells in culture for a period of time with screen hits, allow them to recover for a prescribed period of time, and then perform colony formation assays in suspension in the absence of chemical compound (for breast cancer cells, these assays are referred to as mammosphere formation assays). (3) Treat cells in culture for a period of time with screen hits, allow them to recover for a prescribed period of time, and then inject cells at various cell numbers subcutaneously into immunocompromised animals and evaluate the frequency of tumor formation. The number of injected cells could include 10̂6, 10̂5, 10̂4, 10̂3, and 10̂2 cells. Using follow-up assays, such as those disclosed herein, one can evaluate whether or not a screen hit (or any drug with potential CSC-directed activity) is a bonafide inhibitor of cancer stem cells.

SUM159 cells = experiment: FACS of the CD44hi/CD24lo fraction in treated SUM159 cells; type: cell-based; details: for percent of cells in the CD44hi/CD2410 fraction relative to DMSO controls: FIGS. 5C and 5D
Description: (§7) FIG. 5A depicts flow cytometry analysis of Sum159, MDA-MB-231 and T47D cell lines with respect to cell surface expression of CD44 and CD24. Note that while the majority of cells in Sum159 and MDA-MB-231 line contain large amounts of CSCs, T47D cells have very few such cells. FIG. 5B depicts dose response curves of Sum159, MDA-MB-231 and T47D cell treated with Salinomycin.
To further characterize the effects of compound treatment on cancer cells, we conducted FACS analyses on SUM159 cells treated with salinomycin, abamectin, taxol, or DMSO.
as §4

[5] = test system: SUM159 breast cancer cells; experiment: Mammosphere formation assay with SUM159 breast cancer cells; type: cell-based
Description: as §6, §2

[6] = test system: SUM159, MDA-MB-231 and T47D cells; experiment: Dose response of breast cancer cell lines differing in CSC marker expression; type: cell-based; details: range of doses, FIG. 5B
Description: as §7
Cancer stem cells are resistant to a wide spectrum of treatments and chemotherapeutics. Since the compounds identified using the described screening approach preferentially target epithelial cells having undergone EMT, we wished to determine whether such compounds might also serve to target cancer stem cells.

| SMILES | mammosphere size (HMLER cells [1]) | effect on the number of mammospheres (HMLER cells [1]; FIG. 6A) | tumor volume / tumor growth compared with vehicle control [2] | increase of the CSC-fraction (CD44+/CD24−) (HMLER cells [3]; FIG. 6A) | mammosphere formation (MCF7Ras cells) | mammosphere formation (4T1 cells) | increase in tumor-seeding ability relative to controls ([4]; cells treated in vitro for 5 days, data not shown) | CSC functional activity / CSC number in tumor-formation dilution series relative to DMSO-treated controls ([4]; mouse, in vivo) | CSC functional activity / CSC number in tumor-formation dilution series relative to DMSO-treated controls ([4]; mouse, in vivo, listed as taxol) | percent of cells in the CD44hi/CD2410 fraction relative to DMSO controls (SUM159 cells) | number of cells capable of forming colonies in suspension culture relative to DMSO [5] | decrease in the number of mammospheres relative to controls (HMLER cells [1]; FIG. 6A) | CD44+/CD24− population after treatment (basal 4.9%) (HMLER cells [3]; 15 days) | CD44+/CD24− fraction lower following salinomycin than with paclitaxel (HMLER cells [3]; FIG. 6A) | decrease of the proportion of CD44+/CD24− cells relative to vehicle-treated controls (HMLER cells [3]; FIG. 6A) | sensitivity of CSC-enriched SUM159 and MDA-MB-231 relative to CSC-poor T47D cells [6] | decrease in tumor-seeding ability (CSCs) relative to vehicle/control treatment ([4]; cells treated in vitro for 5 days, injected subcutaneously, data not shown) | reduction of functional CSCs following salinomycin compared to paclitaxel treatment ([4]; mouse, in vivo) | increase in the CSC-depleted fraction (SUM159 cells) | percent of cells in the CD44hi/CD2410 fraction relative to DMSO controls (SUM159 cells; listed as Salinomycin) |
| --- | --- | --- | --- | --- | --- | --- | --- | --- | --- | --- | --- | --- | --- | --- | --- | --- | --- | --- | --- | --- |
| CC(=O)O[C@H]1C(=O)[C@@]2(C)[C@H]([C@H](OC(=O)c3ccccc3)[C@]3(O)C[C@H](OC(=O)[C@H](O)[C@@H](NC(=O)c4ccccc4)c4ccccc4)C(C)=C1C3(C)C)[C@]1(OC(C)=O)CO[C@@H]1C[C@@H]2O [paclitaxel] | significant increase | neither paclitaxel nor vehicle treatment affected the number of mammospheres | reduced tumor volume | 18 fold | not | not | ~10 fold | induced an increase in CSCs | opposite effect | did not significantly affect | increase | – | – | – | – | – | – | – | – | – |
| CC[C@@H](C(=O)[C@@H](C)[C@@H](O)[C@H](C)[C@@H]1O[C@@H]([C@@H](CC)C(=O)O)CC[C@@H]1C)[C@H]1O[C@]2(C=C[C@@H](O)[C@]3(CC[C@@](C)([C@H]4CC[C@](O)(CC)[C@H](C)O4)O3)O2)[C@H](C)C[C@@H]1C [salinomycin] | – | – | reduced tumor volume; also recorded: inhibition of tumor growth | – | inhibited | inhibited | – | significantly reduced | – | significantly reduced | significantly reduced | ~10 fold | 0.2% | 360 fold | 20 fold | positively correlated; also recorded: more sensitive | 100 fold | 1000 fold | ~3 fold | decrease in the CSC population |
